According to patent US10023565B2, “N,N′ substituted piperidinamine compounds, and preparation method and usage thereof” (Institute of Pharmacology and Toxicology Academy of …, priority 2013, dated 2018):
Values joined by “and” are separate entries in the source; they are usually repeats but may differ in a detail not shown here. Equal values may be shown once. Read-outs that look alike come from different tables or passages of the source.

Experiment: Mice pharmacokinetic evaluation (LC-MS/MS of plasma)
Type: in vivo, ICR mice
Settings: for in vivo absorption and elimination: intragastric administration to mice
Description: Mice pharmacokinetic evaluation of the compound of Example 36 according to the method described below
ICR mice, SPS grade, male, weighed […], license number SCXK (Beijing) 2012-0001, purchased from Beijing Vital River Laboratory Animal Technology Co. Ltd.
Chromatographic conditions: Analytical column: Capcell Pak MG, 5 μm particle size, 50×2.0 mm I.D. (Shiseido Co.), connected with C18 guard column, 4×3.0 mm I.D. (PhenomenexCo., USA), column temperature 25° C., mobile phase: acetonitrile −2 mM ammonium acetate (65:35, v/v), flow rate 0.3 ml/min, internal standard: loratadine.
MS conditions: Electrospray ionization source (Turbo Ionspray source), positive ion mode detection; spray voltage 4500 V; source temperature 400° C.; nebulizer gas (NEB) 8; curtain gas (CUR) 10; collision gas (CAD) 4; scanning mode: multiple reaction monitoring (MRM), ion reactions for quantitative analysis: m/z 354.4→m/z 154.1 (Mol, CE 43 V) and m/z 383→m/z 337 (internal standard loratadine, CE 32 V), scanning time 150 msec.
To 50 μl of plasma, were added 10 μl of internal standard solution (125 ng/ml aqueous solution of loratadine), and 500 μl of n-hexane-dichloromethane-isopropanol (100:50:5, v/v/v); they were uniformly mixed, followed by vortexing for 3 min, and centrifuging for 10 min (3000 rpm); the supernatant was taken and blow dried with air streamat 40° C.; the residue was dissolved with 150 μl […], and subjected to LC-MS/MS analysis.
30 ICR male mice were randomly divided into […], five mices each group, including Mol 10 mg/kg oral group and 1.0 mg/kg tail intravenous injection group. For oral group, before administration, the animals were fasted for 12 h, with free access to water; 0.08, 0.25, 0.5, 1, 2, 4, 6, 8, 12 and 24 h after intragastrical administration, 0.1 ml of orbital venous sinus blood was taken, placed in anticoagulation tube containing heparin sodium, and subjected to 3000 g centrifugation for 15 min; and then, the plasma was taken and stored in a −20° C. refrigerator. […]
Pharmacokinetic parameters were calculated using non-compartment model of Winnonlin® software (Version 5.2.1, USA). Cmax is the measured maximum plasma concentration, Tmax is time to peak plasma concentration after oral administration, t1/2 is drug terminal elimination halflife, MRT is average residence time of drug in vivo, the area AUC0-t under plasma concentration—time curve is calculated by trapezoidal method.
Bioavailability is calculated as follows: […]
AUC: Area (h*ng/ml) under the curve; D: dose (mg/kg)

[1] = IV 1.0 mg/kg, individual mice 4-6, listed as Mol, 1 mg/kg
[2] = Po 10 mg/kg, individual mice 1-3, listed as Mol, 10 mg/kg
[3] = male, ICR, mouse, plasma, iv, 1 mg/kg, IV 1.0 mg/kg, Mean ± SD, n = 3
[4] = male, ICR, mouse, plasma, iv, 1 mg/kg, IV 1.0 mg/kg, individual mice 4-6

## CSc1nccc(N2CCC(N(C)Cc3ccc(C#N)cc3)CC2)n1 [Example 36, N-methyl-N-(4-cyanobenzyl)-N-[1-(2-methylthiopyrimidin-4-yl)piperidin-4-yl]amine]
IV 1.0 mg/kg, Mean ± SD, n = 3
  Ke: 0.97 ± 0.88 h⁻¹
[1]
  AUC0-∞: 37.81 ng·h/mL and 58.27 ng·h/mL
  Cmax: 63.90 ng/mL and 71.35 ng/mL
  Ke: 1.98 h⁻¹ and 0.51 h⁻¹ and 0.43 h⁻¹
  MRT0-t: 0.42 h and 1.02 h and 2.40 h
  MRT0-∞: 0.46 h and 1.35 h and 2.71 h
  Tmax: 0.03 h (2×) and 0.08 h
  t1/2: 0.35 h and 1.37 h and 1.62 h
Po 10 mg/kg vs IV 1.0 mg/kg, individual mice 1-3, listed as Mol
  F (bioavailability): 43.20% and 63.94% and 59.39%
Po 10 mg/kg, Mean ± SD, n = 3
  Ke: 0.43 ± 0.33 h⁻¹
Po 10 mg/kg, Mean ± SD, n = 3, listed as Mol, 10 mg/kg
  Cmax: 260.2 ± 63.19 ng/mL
[2]
  AUC0-∞: 317.86 ng·h/mL and 305.15 ng·h/mL
  Cmax: 260.48 ng/mL and 323.37 ng/mL
  Ke: 0.40 h⁻¹ and 0.77 h⁻¹ and 0.13 h⁻¹
  MRT0-t: 1.26 h and 0.93 h and 2.56 h
  MRT0-∞: 1.34 h and 0.95 h and 3.57 h
  Tmax: 0.08 h and 1.00 h and 0.25 h
  t1/2: 1.74 h and 0.90 h and 5.53 h
10 mg/kg
  in vivo absorption and elimination: in vivo absorption and elimination of the compound both are faster
10 mg/kg, listed as Mol
  in vivo absorption and elimination: the vivo absorption and elimination after intragastrical administration to mice both were quite fast
Intravenous 1.0 mg/kg, 0.03 h, individual mice 4-6, listed as Mol, 1 mg/kg
  Plasma concentration of active compound: 99.34 ng/mL and 9.23 ng/mL and 71.35 ng/mL
Intravenous 1.0 mg/kg, 0.08 h, individual mice 4-6, listed as Mol, 1 mg/kg
  Plasma concentration of active compound: 63.90 ng/mL and 63.03 ng/mL
Intravenous 1.0 mg/kg, 0.17 h, individual mice 4-6, listed as Mol, 1 mg/kg
  Plasma concentration of active compound: 56.30 ng/mL and 52.58 ng/mL
Intravenous 1.0 mg/kg, 0.5 h, individual mice 4-6, listed as Mol, 1 mg/kg
  Plasma concentration of active compound: 48.72 ng/mL and 24.29 ng/mL and 21.45 ng/mL
Intravenous 1.0 mg/kg, 1.0 h, individual mice 4-6, listed as Mol, 1 mg/kg
  Plasma concentration of active compound: 10.10 ng/mL and 3.94 ng/mL and 7.02 ng/mL
Intravenous 1.0 mg/kg, 2.0 h, individual mice 4-6, listed as Mol, 1 mg/kg
  Plasma concentration of active compound: 2.35 ng/mL and 0.95 ng/mL and 1.99 ng/mL
Intravenous 1.0 mg/kg, 4.0 h, individual mice 4-6, listed as Mol, 1 mg/kg
  Plasma concentration of active compound: 2.23 ng/mL
Intravenous 1.0 mg/kg, 8.0 h, individual mice 4-6, listed as Mol, 1 mg/kg
  Plasma concentration of active compound: 0.98 ng/mL
[3]
  AUC(0-inf): 51.2 ± 11.6 ng·h/mL
  AUC(0-t): 49.6 ± 11.4 ng·h/mL
  half-life: 1.11 ± 0.67 h
male, ICR, mouse, plasma, iv, 1 mg/kg, IV 1.0 mg/kg, Mean ± SD, n = 3, read-out: Cmax
  Cmax: 78.1 ± 18.7 ng/mL
male, ICR, mouse, plasma, iv, 1 mg/kg, IV 1.0 mg/kg, Mean ± SD, n = 3, read-out: MRT0-t
  MRT last: 1.28 ± 1.01 h
male, ICR, mouse, plasma, iv, 1 mg/kg, IV 1.0 mg/kg, Mean ± SD, n = 3, read-out: MRT0-∞
  MRT inf: 1.51 ± 1.13 h
male, ICR, mouse, plasma, iv, 1 mg/kg, IV 1.0 mg/kg, Mean ± SD, n = 3, read-out: Tmax
  Tmax: 0.05 ± 0.03 h
[4]
  AUC(0-inf): 57.6 ng·h/mL
  AUC(0-t): 56.4 ng·h/mL
male, ICR, mouse, plasma, iv, 1 mg/kg, IV 1.0 mg/kg, individual mice 4-6, read-out: Cmax
  Cmax: 99.3 ng/mL
male, ICR, mouse, plasma, iv, 1 mg/kg, intravenous 1.0 mg/kg, 0.03 h, Mean, read-out: Plasma concentration of active compound
  concentration at 0.03 h: 60 ng/mL
male, ICR, mouse, plasma, iv, 1 mg/kg, intravenous 1.0 mg/kg, 0.08 h, Mean, read-out: Plasma concentration of active compound
  concentration at 0.08 h: 74.5 ng/mL
male, ICR, mouse, plasma, iv, 1 mg/kg, intravenous 1.0 mg/kg, 0.08 h, individual mice 4-6, read-out: Plasma concentration of active compound
  concentration at 0.08 h: 96.6 ng/mL
